Measured values reported in patent publication US20050267166A1, “Continuous dosing regimen” (priority 2004, published 2005).
Marks after values point to notes of the source that are not given here.

Columns and labels:
[1] = test system: HCT-15 human colon carcinoma; test: HCT-15 human colon carcinoma xenografts; assay type: in vivo
From the text: HCT-15 is a human colon carcinoma derived cell line. It is MDR positive, and expresses both mutant p53 and oncogenic K-ras. The HCT-15 cell line has one of the highest levels of mdr-1/P-glycoprotein expression of cells from the NCI tumor cell line panel.
Effect of Cytotoxic Agents on the Growth of HCT-15 Human Colon Carcinoma Xenografts

[2] = adverse side effects reported in 134 patients; assay type: in vivo, human; settings: of 134 patients; 200-300 mg QD, 125-175 mg BID
Procedure: For 134 patients tested, at doses of about 200 mg QD, 250 mg QD, 300 mg QD, 125 mg BID, 150 mg BID, and 175 mg BID, 16 reported anemia, of which 11 were Grades I or II and 5 were Grades (III or IV); 1 reported Grade I or II alpoecia; 8 reported Grade I or II neutropenia; and none reported fluid retention, for which Grade I is defined as mild, Grade II is defined as moderate, Grade III is defined as severe, Grade IV is defined as life threatening.

[3] = in vivo; settings: mouse, po
[4] = test system: intestinal tumors of Apc^Min (Min) mice; test: Apc Min mice spontaneous intestinal tumorigenesis model; assay type: in vivo; settings: orally once-a-day for 28 days at 150 mg/kg/day; vehicle controls 73.3
From the text: Apc^Min (Min) mice are models for genetically inherited intestinal cancer. These mice carry a dominant germline mutation in the Apc tumor suppressor gene that predisposes them to the development of numerous (>50) tumors throughout the intestinal tract.
The average tumor number for treated mice was 49.8 compared to 73.3 for vehicle controls. Drug treatment was initiated at an age when the tumors were well-established.

[5] = test system: COLO320DM colorectal cancer; test: human tumor xenograft in nude mice, COLO320DM; assay type: in vivo; settings: Q1D × 19, 120 mg/kg/day
[6] = test system: MX-1 breast cancer; test: human tumor xenograft in nude mice, MX-1; assay type: in vivo; settings: Q5D × 5, 450 mg/kg/day
[7] = test system: C26 colon tumors; test: C26 colon tumors grown in the flank of CDF-1 mice; assay type: in vivo
[8] = test system: HT-1376 bladder; test: HT-1376 orthotopic tumor model; assay type: in vivo, human; settings: d 1-5, 11-15
[9] = pharmacokinetics in cancer subjects, single dose and 5-day repeated dose; assay type: in vivo, human
Procedure: (§1) (2-((4-hydroxyphenyl)amino)pyrid-3-yl)-4-methoxybenzenesulfonamide was evaluated in 57 cancer subjects in single dose (16 subjects) and 5-day repeated dose regimens (41 subjects). The doses administered in the single dose segment were 80 to 480 mg/m^2/day. In the 5-day repeated dose regimen (2-((4-hydroxyphenyl)amino)pyrid-3-yl)-4-methoxybenzenesulfonamide was given at 30 to 240 mg/m^2/day for a single cycle. […] Adverse drug reactions from the single dose and 5-day repeated dose segments included nausea and vomiting, diarrhea, epigastric pain, ileus and evidence of peripheral neuropathy. For the single dose segment, the dose limiting toxicity (DLT) was Grade 3 peripheral neuropathy in 1 of 5 subjects at 480 mg/m^2/day. In the 5-day repeated dose regimen the dose limiting toxicities were Grade 3 peripheral neuropathy in 1 of 4 subjects at 210 mg/m^2/day and Grade 4 intestinal paralysis in 1 of 4 subjects at 210 mg/m^2/day and in 1 of 6 subjects at 240 mg/m^2/day.

[10] = test system: WiDr colorectal cancer; test: human tumor xenograft in nude mice, WiDr; assay type: in vivo; settings: Q1D × 20, 100 mg/kg/day
[11] = test system: KB oral cancer; test: human tumor xenograft in nude mice, KB; assay type: in vivo; settings: Q1D × 20, 100 mg/kg/day
[12] = test system: H-154 gastric cancer; test: human tumor xenograft in nude mice, H-154; assay type: in vivo; settings: Q5D × 5, 300 mg/kg/day
[13] = dose limiting toxicity in cancer subjects, single dose and 5-day repeated dose; assay type: in vivo, human
Procedure: as §1

[14] = test system: LX-1 lung cancer; test: human tumor xenograft in nude mice, LX-1; assay type: in vivo; settings: Q1D × 20, 120 mg/kg/day
[15] = test system: H-81 gastric cancer; test: human tumor xenograft in nude mice, H-81; assay type: in vivo; settings: Q5D × 5, 300 mg/kg/day
[16] = test system: MiaPaCa-2 pancreatic; test: MiaPaCa-2 orthotopic tumor model; assay type: in vivo, human; settings: for % T/C: orthotopic, d 1-5, 11-15
From the text: (2-((4-hydroxyphenyl)amino)pyrid-3-yl)-4-methoxybenzenesulfonamide inhibited the growth of a variety of human tumor xenografts that were allowed to grow into established tumors prior to the initiation of treatment. As summarized below, activity was seen against established tumors derived from colon, breast and lung carcinomas. (2-((4-hydroxyphenyl)amino)pyrid-3-yl)-4-methoxybenzenesulfonamide was also active against a human pancreatic tumor xenograft grown in the orthotopic site.

[17] = test system: HT-29 colon carcinoma; test: HT-29 colon flank xenograft model (staged); assay type: in vivo, human
Procedure: Following inoculation of tumor cells, tumors were passaged three times in mice before using the fragments to generate single cell suspensions. Multiple animals were used as donors. Single cell suspensions were generated by homogenizing the minced tumor tissue in RPMI 1640 media. Cell suspensions were washed three times to remove debris and other foreign materials. Viable cells were counted by trypan blue exclusion technique using a hemocytometer. Mice were injected subcutaneously with 0.5 mL of the cell suspension containing 1×10^6 cells.
On day 10, mice bearing established tumors were size matched and grouped at about 236 mm^3.

[18] = test system: LC-11 lung cancer; test: human tumor xenograft in nude mice, LC-11; assay type: in vivo; settings: Q1D × 8, 150 mg/kg/day
[19] = test system: SC-6 gastric cancer; test: human tumor xenograft in nude mice, SC-6; assay type: in vivo; settings: Q5D × 5, 500 mg/kg/day
[20] = 5-day repeated dose, 210 mg/m^2/day
[21] = oral 75 mg/kg/d QD, d 10-14, 20-24

In the case of `COc1ccc(S(=O)(=O)Nc2cccnc2Nc2ccc(O)cc2)cc1` [ABT-751, N-(2-((4-hydroxyphenyl)amino)pyrid-3-yl)-4-methoxybenzenesulfonamide], the “% ILS” value ([1]; 50 mg/kg/d PO, QD, days 1-8) is reported as 34%, the T/C ([1]; 50 mg/kg/d PO, QD, days 1-8, 2 trials) is reported as 50 (2) and the “efficacy in HCT-15 xenografts” value ([1]; in words) is reported as “effective in inhibiting tumor growth”. The “patients reporting Grade I or II alopecia” value [2] was 1, the “patients reporting Grade I or II neutropenia” value [2] was 8 and the patients reporting anemia [2] was 16. For the same compound, the “patients reporting anemia Grades I or II” value [2] was 11, the “patients reporting anemia Grades III or IV” value [2] was 5 and the “patients reporting fluid retention” value [2] was “none”. For the same compound, the MTD [3] was roughly 150 mg/kg, the average tumor number [4] was 49.8 and the “T/C (%)” value [5] was 42%. For the same compound, the “T/C (%)” value [6] was 21%, the “antitumor activity against C26 colon tumors” value ([7]; 5-day schedule) was “only marginally active” and the “antitumor activity against C26 colon tumors” value ([7]; extended dosing) was “significant antitumor response”. For the same compound, the “% T/C” value ([8]; oral 100 mg/kg/d QD) was 63%, the “% T/C” value ([8]; oral 100 mg/kg/d b.i.d.) was 86^e % and the half-life ([9]; human, plasma, cancer subjects, single dose and 5-day repeated dose, read-out: elimination half-life) was 4 to 16 h. The AUC versus dose ([9]; range of 30 to 480 mg/m^2/day) was “increased proportionally with dose”, the “T/C (%)” value [10] was 22% and the “T/C (%)” value [11] was 15%. The “T/C (%)” value [12] was 71%, the “dose limiting toxicity: Grade 3 peripheral neuropathy, subjects affected” value [13, 20] was 1 of 4 and the “dose limiting toxicity: Grade 4 intestinal paralysis, subjects affected” value [13, 20] was 1 of 4. For the same compound, the “dose limiting toxicity: Grade 4 intestinal paralysis, subjects affected” value ([13]; 5-day repeated dose, 240 mg/m^2/day) was 1 of 6, the “dose limiting toxicity: Grade 3 peripheral neuropathy, subjects affected” value ([13]; single dose, 480 mg/m^2/day) was 1 of 5 and the “T/C (%)” value [14] was 37%. The “T/C (%)” value [15] was 40%, the “antitumor activity in combination with gemcitabine compared to single agent alone” value ([16]; in combination with gemcitabine, MiaPaCa2 pancreatic xenograft) was “increase in antitumor activity” and the “% T/C” value ([16]; oral 75 mg/kg/d QD) was 79%. The “% T/C” value ([16]; oral 100 mg/kg/d QD) was 56%, the “antitumor activity as single agent” value ([17]; 100 and 75 mg/kg/day, (5 days on/5 days off)×2) was “significant antitumor activity” and the “response in combination with 5-fluorouracil” value ([17]; in combination with 5-fluorouracil at 30 mg/kg/day, higher doses) was “additive responses”. For the same compound, the “% T/C” value ([17]; oral 50 mg/kg/d QD, d 1-21) was 55%, the “% ILS” value [17, 21] was 50% and the “% T/C” value [17, 21] was 43%. The “% T/C” value ([17]; oral 100 mg/kg/d QD, d 10-14, 20-24) was 28%, the “T/C (%)” value [18] was 93% and the “T/C (%)” value [19] was 22%.
